In BindingDB's records for doi:10.1021/jm980131z (Boehringer Ingelheim (Canada), 1998):

target: Human cytomegalovirus protease (Human herpesvirus 5); experiment: Inhibitory activity against human cytomegalovirus (HCMV) protease

SMILES | IC50 [µM]
CN(Cc1ccc(C#N)cc1)C(=O)N1C(=O)C[C@@H]1Cc1ccccc1 [(S)-2-Benzyl-4-oxo-azetidine-1-carboxylic acid (4-cyano-benzyl)-methyl-amide] | 6
CCC[C@@H](NC(=O)N1C(=O)C[C@@H]1Cc1ccccc1)c1ccccc1 [(S)-2-Benzyl-4-oxo-azetidine-1-carboxylic acid ((R)-1-phenyl-butyl)-amide] | 3.4
CN(Cc1ccc(SC(F)(F)F)cc1)C(=O)N1C(=O)C[C@@H]1Cc1ccccc1 [(S)-2-Benzyl-4-oxo-azetidine-1-carboxylic acid methyl-(4-trifluoromethylsulfanyl-benzyl)-amide] | 6.9
CC1(C)C(=O)N(C(=O)NCc2ccncc2)[C@H]1Cc1ccccc1 [(S)-2-Benzyl-3,3-dimethyl-4-oxo-azetidine-1-carboxylic acid (pyridin-4-ylmethyl)-amide] | > 75
C[C@H](NC(=O)N1C(=O)C[C@@H]1Cc1ccccc1)c1ccccc1 [(S)-2-Benzyl-4-oxo-azetidine-1-carboxylic acid ((S)-1-phenyl-ethyl)-amide] | 42
O=C1C[C@H](Cc2ccccc2)N1C(=O)Nc1ccc(F)cc1 [(S)-2-Benzyl-4-oxo-azetidine-1-carboxylic acid (4-fluoro-phenyl)-amide] | 3.7
CN(Cc1ccccc1[N+](=O)[O-])C(=O)N1C(=O)C[C@@H]1Cc1ccccc1 [(S)-2-Benzyl-4-oxo-azetidine-1-carboxylic acid methyl-(2-nitro-benzyl)-amide] | 11
CN(Cc1ccc(S(=O)(=O)C(F)(F)F)cc1)C(=O)N1C(=O)C[C@@H]1Cc1ccccc1 [(S)-2-Benzyl-4-oxo-azetidine-1-carboxylic acid methyl-(4-trifluoromethanesulfonyl-benzyl)-amide] | 4.3
O=C1C[C@H](Cc2ccccc2)N1C(=O)N(Cc1ccccc1)C1CC1 [(S)-2-Benzyl-4-oxo-azetidine-1-carboxylic acid benzyl-cyclopropyl-amide] | > 75
CC[C@@H](NC(=O)N1C(=O)C[C@@H]1Cc1ccccc1)c1ccccc1 [(S)-2-Benzyl-4-oxo-azetidine-1-carboxylic acid ((R)-1-phenyl-propyl)-amide] | 2.6
CN(Cc1ccc(N)cc1)C(=O)N1C(=O)C[C@@H]1Cc1ccccc1 [(S)-2-Benzyl-4-oxo-azetidine-1-carboxylic acid (4-amino-benzyl)-methyl-amide] | 20
O=C1C[C@H](Cc2ccccc2)N1C(=O)NCc1ccncc1 [(S)-2-Benzyl-4-oxo-azetidine-1-carboxylic acid (pyridin-4-ylmethyl)-amide] | 12
O=C1C[C@H](Cc2ccccc2)N1C(=O)NCc1ccccn1 [(S)-2-Benzyl-4-oxo-azetidine-1-carboxylic acid (pyridin-2-ylmethyl)-amide] | 33
C[C@@H](NC(=O)N1C(=O)C[C@H]1Cc1ccccc1)c1ccccc1 [(R)-2-Benzyl-4-oxo-azetidine-1-carboxylic acid ((R)-1-phenyl-ethyl)-amide] | > 75
CS[C@@H]1C(=O)N(C(=O)NCc2ccncc2)[C@H]1Cc1ccccc1 [(2S,3S)-2-Benzyl-3-methylsulfanyl-4-oxo-azetidine-1-carboxylic acid (pyridin-4-ylmethyl)-amide] | 6.9
Cc1ccc(NC(=O)N2C(=O)C[C@@H]2Cc2ccccc2)cc1 [(S)-2-Benzyl-4-oxo-azetidine-1-carboxylic acid p-tolylamide] | 5.2
COc1ccc(NC(=O)N2C(=O)C[C@@H]2Cc2ccccc2)cc1 [(S)-2-Benzyl-4-oxo-azetidine-1-carboxylic acid (4-methoxy-phenyl)-amide] | 3.9
CN(Cc1ccc(Cl)cc1)C(=O)N1C(=O)C[C@@H]1Cc1ccccc1 [(S)-2-Benzyl-4-oxo-azetidine-1-carboxylic acid (4-chloro-benzyl)-methyl-amide] | 6.9
O=C1C[C@H](Cc2ccccc2)N1C(=O)NCc1cccnc1 [(S)-2-Benzyl-4-oxo-azetidine-1-carboxylic acid (pyridin-3-ylmethyl)-amide] | 10
CN(Cc1ccc([N+](=O)[O-])cc1)C(=O)N1C(=O)C[C@@H]1Cc1ccccc1 [(S)-2-Benzyl-4-oxo-azetidine-1-carboxylic acid methyl-(4-nitro-benzyl)-amide] | 1.5
CN(Cc1cccc([N+](=O)[O-])c1)C(=O)N1C(=O)C[C@@H]1Cc1ccccc1 [(S)-2-Benzyl-4-oxo-azetidine-1-carboxylic acid methyl-(3-nitro-benzyl)-amide] | 6.9
Cc1ccc(CN(C)C(=O)N2C(=O)C[C@@H]2Cc2ccccc2)cc1 [(S)-2-Benzyl-4-oxo-azetidine-1-carboxylic acid methyl-(4-methyl-benzyl)-amide] | 8.9
CC(=O)Nc1ccc(CN(C)C(=O)N2C(=O)C[C@@H]2Cc2ccccc2)cc1 [(S)-2-Benzyl-4-oxo-azetidine-1-carboxylic acid (4-acetylamino-benzyl)-methyl-amide] | 17
O=C1C[C@H](Cc2ccccc2)N1C(=O)NCc1ccccc1 [(S)-2-Benzyl-4-oxo-azetidine-1-carboxylic acid benzylamide] | 10
O=C1C[C@H](Cc2ccccc2)N1C(=O)N(Cc1ccccc1)OCc1ccccc1 [(S)-2-Benzyl-4-oxo-azetidine-1-carboxylic acid benzyl-benzyloxy-amide] | 13
CC(C)c1ccc(CN(C)C(=O)N2C(=O)C[C@@H]2Cc2ccccc2)cc1 [(S)-2-Benzyl-4-oxo-azetidine-1-carboxylic acid (4-isopropyl-benzyl)-methyl-amide] | 6.4
C[C@@H](NC(=O)N1C(=O)C[C@@H]1Cc1ccccc1)c1ccccc1 [(S)-2-Benzyl-4-oxo-azetidine-1-carboxylic acid ((R)-1-phenyl-ethyl)-amide] | 4
O=C1C[C@H](Cc2ccccc2)N1C(=O)NC1CCCCC1 [(S)-2-Benzyl-4-oxo-azetidine-1-carboxylic acid cyclohexylamide] | 8.4
CC1(C)C(=O)N(C(=O)NCc2ccncc2)[C@@H]1Cc1ccccc1 | > 300
CON(Cc1ccccc1)C(=O)N1C(=O)C[C@@H]1Cc1ccccc1 [(S)-2-Benzyl-4-oxo-azetidine-1-carboxylic acid benzyl-methoxy-amide] | 6.2
